The text below walks through data of patent US12686690B2, “Macrocyclic urea orexin receptor agonists” (Merck Sharp & Dohme LLC, priority 2020, dated 2026).

The target of this test is T1, hOX2R (Homo sapiens, UniProt O43614).
T1 construct: expressed in transfected cells; host or cells: CHO cells (G418 selection)
T1 sequence (O43614 1-444): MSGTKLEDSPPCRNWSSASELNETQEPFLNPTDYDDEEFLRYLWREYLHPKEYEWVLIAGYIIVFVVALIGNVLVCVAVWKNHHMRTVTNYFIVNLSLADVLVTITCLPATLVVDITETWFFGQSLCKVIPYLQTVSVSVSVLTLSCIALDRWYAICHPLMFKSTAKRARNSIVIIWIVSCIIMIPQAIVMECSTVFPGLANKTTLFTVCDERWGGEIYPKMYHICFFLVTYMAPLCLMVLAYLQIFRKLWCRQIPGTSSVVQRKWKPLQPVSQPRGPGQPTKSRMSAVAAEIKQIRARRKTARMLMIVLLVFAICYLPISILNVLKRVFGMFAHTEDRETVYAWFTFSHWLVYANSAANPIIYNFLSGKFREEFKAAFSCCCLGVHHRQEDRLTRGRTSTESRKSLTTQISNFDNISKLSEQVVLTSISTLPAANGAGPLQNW
Nature of the test: hOX2R IPone assay (orexin receptor agonism). It counts as cell-based. The conditions noted are these: IPone readout; for hOX2R_Ipone max %act: maximal activation; for EC50: orexin receptor agonist, read-out: hOX2R_IPone EC50.

The term EC50 denotes the concentration needed to bring the measured effect to its halfway point.

In the case of `CCN1Cc2cc(ccn2)-c2cn3ccnc3c(n2)OCCCCC[C@H](CCC(F)(F)F)NC1=O` [Example 120, (16R)-13-ethyl-16-(3,3,3-trifluoropropyl)-12,13,16,17,18,19,20,21-octahydro-6,23-(azeno)-11,7-(metheno)imidazo[2,1-c][1,4,10,13,15]oxatetraazacyclohenicosin-14(15H)-one], the hOX2R_Ipone max %act came to 98.4% and the EC50 worked out at 17.7 nM.

As for `CCN1C(=O)NC(CC(F)(F)CC)CCOCCOc2cn3ncnc3c(n2)-c2cc(ncc2C)C1C` [Example 122, (3R,E)-7-(2,2-difluorobutyl)-4-ethyl-25,3-dimethyl-10,13-dioxa-4,6-diaza-1(6,8)-[1,2,4]triazolo[1,5-a]pyrazina-2(4,2)-pyridinacyclotridecaphan-5-one], the hOX2R_Ipone max %act came to 104.4% and the EC50 was 36.4 nM.

As to `CCN1C(=O)N[C@@H](CCC(F)(F)F)CCCCCOc2nc(nn3cc(C)nc23)-c2cc(ncc2OC)[C@H]1C` [Example 123, (3R,7R,E)-4-ethyl-25-methoxy-16,3-dimethyl-7-(3,3,3-trifluoropropyl)-13-oxa-4,6-diaza-1(2,4)-imidazo[2,1-f][1,2,4]triazina-2(4,2)-pyridinacyclotridecaphan-5-one], the hOX2R_Ipone max %act is on record as 102.5% and the concentration giving a half-maximal response (EC50) came out at 13.8 nM.

Regarding `CCN1C(=O)N[C@@H](CCC(F)(F)F)CCCCCOc2nc(nn3c(C)cnc23)-c2cc(ncc2OC)[C@H]1C` [Example 124, (3R,7R,E)-4-ethyl-25-methoxy-17,3-dimethyl-7-(3,3,3-trifluoropropyl)-13-oxa-4,6-diaza-1(2,4)-imidazo[2,1-f][1,2,4]triazina-2(4,2)-pyridinacyclotridecaphan-5-one], the hOX2R_Ipone max %act is given as 97.96% and the EC50 is 3.99 nM.

With `CCN1Cc2cnc(OC)c(c2)-c2nc(c3nccn3n2)OCCCCC[C@H](CCC(C)(F)F)NC1=O` [Example 125, (R,E)-7-(3,3-difluorobutyl)-4-ethyl-22-methoxy-13-oxa-4,6-diaza-1(2,4)-imidazo[2,1-f][1,2,4]triazina-2(3,5)-pyridinacyclotridecaphan-5-one], the hOX2R_Ipone max %act was 100.2% and the EC50 turned out to be 1.41 nM.

In the case of `CCN1C(=O)N[C@@H](CF)CCCCCOc2nc(cn3ccnc23)-c2cc(ncc2OC)[C@H]1C` [Example 126, (3R,7R,E)-4-ethyl-7-(fluoromethyl)-25-methoxy-3-methyl-13-oxa-4,6-diaza-1(6,8)-imidazo[1,2-a]pyrazina-2(4,2)-pyridinacyclotridecaphan-5-one], the hOX2R_Ipone max %act is 96.84% and the 50% effective concentration (EC50) was determined as 9.38 nM.

In the case of `CCN1C(=O)N[C@@H](CCC(F)F)CCOCCOc2nc(nn3ccnc23)-c2cc(ncc2F)[C@H]1C` [Example 127, (3R,7S,E)-7-(3,3-difluoropropyl)-4-ethyl-25-fluoro-3-methyl-10,13-dioxa-4,6-diaza-1(2,4)-imidazo[2,1-f][1,2,4]triazina-2(4,2)-pyridinacyclotridecaphan-5-one], the hOX2R_Ipone max %act worked out at 100.1% and the EC50 was 5.43 nM.

Consider `CCN1C(=O)N[C@@H](CCC(F)F)CCCCCOc2nc(cn3ncnc23)-c2cc(ncc2Cl)[C@H]1C` [Example 128, (3R,7R,E)-25-chloro-7-(3,3-difluoropropyl)-4-ethyl-3-methyl-13-oxa-4,6-diaza-1(6,8)-[1,2,4]triazolo[1,5-a]pyrazina-2(4,2)-pyridinacyclotridecaphan-5-one], for which the hOX2R_Ipone max %act was 102.9% and the concentration for a half-maximal effect (EC50) stood at 11.2 nM.

In the case of `CCN1C(=O)N[C@@H](CCC(C)(F)F)CCOCCOc2nc(cn3ncnc23)-c2cc(ncc2C)[C@H]1C` [Example 129, (3R,7S,E)-7-(3,3-difluorobutyl)-4-ethyl-25,3-dimethyl-10,13-dioxa-4,6-diaza-1(6,8)-[1,2,4]triazolo[1,5-a]pyrazina-2(4,2)-pyridinacyclotridecaphan-5-one], the hOX2R_Ipone max %act worked out at 100.2% and the EC50 worked out at 1.49 nM.

For `CCN1C(=O)NC(CC(O)C(F)(F)F)CCCCCOc2cn3ncnc3c(n2)-c2cc(ncc2OC)C1C` [Example 130, (3R,7R,E)-4-ethyl-25-methoxy-3-methyl-7-((R)-3,3,3-trifluoro-2-hydroxypropyl)-13-oxa-4,6-diaza-1(6,8)-[1,2,4]triazolo[1,5-a]pyrazina-2(4,2)-pyridinacyclotridecaphan-5-one], the hOX2R_Ipone max %act is reported as 102% and the EC50 was found to be 1.48 nM.

With `CCN1C(=O)NC(CC(O)C(F)(F)F)CCCCCOc2cn3ncnc3c(n2)-c2cc(ncc2OC)C1C` [Example 131, (3R,7R,E)-4-ethyl-25-methoxy-3-methyl-7-((S)-3,3,3-trifluoro-2-hydroxypropyl)-13-oxa-4,6-diaza-1(6,8)-[1,2,4]triazolo[1,5-a]pyrazina-2(4,2)-pyridinacyclotridecaphan-5-one], the hOX2R_Ipone max %act was found to be 102.2% and the concentration giving a half-maximal response (EC50) worked out at 0.77 nM.

`CCN1C(=O)NC(C(O)CC(F)(F)F)CCCCCOc2cn3ncnc3c(n2)-c2cc(ncc2OC)C1C` [Example 132, (3R,7R,E)-4-ethyl-25-methoxy-3-methyl-7-((R)-3,3,3-trifluoro-1-hydroxypropyl)-13-oxa-4,6-diaza-1(6,8)-[1,2,4]triazolo[1,5-a]pyrazina-2(4,2)-pyridinacyclotridecaphan-5-one]: the hOX2R_Ipone max %act is 102.9% and the EC50 is 4.98 nM.

As to `CCN1C(=O)N[C@@H](CCC(F)(F)F)CCS(=O)(=O)CCOc2nc(cn3ncnc23)-c2cc(ncc2OC)[C@H]1C` [Example 135, (3R,7S,E)-4-ethyl-25-methoxy-3-methyl-7-(3,3,3-trifluoropropyl)-13-oxa-10-thia-4,6-diaza-1(6,8)-[1,2,4]triazolo[1,5-a]pyrazina-2(4,2)-pyridinacyclotridecaphan-5-one 10,10-dioxide], the hOX2R_Ipone max %act stood at 93.31% and the EC50 stood at 170 nM.

On to `CCN1C(=O)NC(CCC(F)(F)F)CCOCCOc2cn3ncnc3c(n2)-c2ccnc(c2)C1C` [Example 136, (3R,7S,E)-4-ethyl-3-methyl-7-(3,3,3-trifluoropropyl)-10,13-dioxa-4,6-diaza-1(6,8)-[1,2,4]triazolo[1,5-a]pyrazina-2(4,2)-pyridinacyclotridecaphan-5-one], for which the hOX2R_Ipone max %act turned out to be 101.7% and the concentration for a half-maximal effect (EC50) was determined as 0.724 nM.

Consider `CCN1C(=O)N[C@@H](CCC(F)(F)F)CCCCCc2cc(cn3ccnc23)-c2nc(ccc2OC)[C@H]1C` [Example 138, (3R,7R,Z)-4-ethyl-23-methoxy-3-methyl-7-(3,3,3-trifluoropropyl)-4,6-diaza-1(6,8)-imidazo[1,2-a]pyridina-2(2,6)-pyridinacyclododecaphan-5-one], for which the hOX2R_Ipone max %act was found to be 100.1% and the 50% effective concentration (EC50) is 8.48 nM.

For `CCN1C(=O)N[C@@H](CCC(F)(F)F)CCCCCOc2nc(cn3ccnc23)-c2nc(cnc2OC)[C@H]1C` [Example 139, (3R,7R,E)-4-ethyl-23-methoxy-3-methyl-7-(3,3,3-trifluoropropyl)-13-oxa-4,6-diaza-1(6,8)-imidazo[1,2-a]pyrazina-2(2,6)-pyrazinacyclotridecaphan-5-one], the hOX2R_Ipone max %act is listed as 97.88% and the half-maximal effective concentration (EC50) came out at 1.08 nM.
